The values below are quoted from earlier work in paper PMC11220795 (Molecular Pharmaceutics, 2024).

For one data set the following is noted: decadic logarithm of molar solubility in MCTs; ref Alsenz, J. and Kuentz, M., 2019; cited from earlier work.
With `COc1ccc2c(c1)c(CC(=O)O)c(C)n2C(=O)c1ccc(Cl)cc1` [indomethacin], the “log10 S [M]” value was -2.01 M.

`CC(=O)Nc1ccc(O)cc1` [paracetamol]: the “log10 S [M]” value was -2.50 M.

Turning to `CCc1nc(N)nc(N)c1-c1ccc(Cl)cc1` [pyrimethamine], the “log10 S [M]” value was -2.65 M.

Turning to `Nc1ccc(S(=O)(=O)Nc2ccnn2-c2ccccc2)cc1` [sulfaphenazole], the “log10 S [M]” value is on record as -3.03 M. Consider `O=C(CCCN1CCC(O)(c2ccc(Cl)cc2)CC1)c1ccc(F)cc1` [haloperidol], for which the “log10 S [M]” value is -2.38 M. Take `O=C(O)c1cc(/N=N/c2ccc(S(=O)(=O)Nc3ccccn3)cc2)ccc1O` [sulfasalazine]: the “log10 S [M]” value was -4.24 M.

The same data set, now with this note: decadic logarithm of molar solubility in MCTs; ref Alskär, L.C., Porter, C.J. and Bergström, C.A., 2016; cited from earlier work.
As for `O=C(C1CCCCC1)N1CC(=O)N2CCc3ccccc3C2C1` (centres unmarked) [praziquantel], the “log10 S [M]” value is -1.38 M. In the case of `CCOc1nc2cccc(C(=O)O)c2n1Cc1ccc(-c2ccccc2-c2nnn[nH]2)cc1` [candesartan], the “log10 S [M]” value is -4.64 M.

Consider `COC(=O)Nc1nc2ccc(Sc3ccccc3)cc2[nH]1` [fenbendazole], for which the “log10 S [M]” value was -3.20 M.

`CCC(C)n1ncn(-c2ccc(N3CCN(c4ccc(OCC5COC(Cn6cncn6)(c6ccc(Cl)cc6Cl)O5)cc4)CC3)cc2)c1=O` (centres unmarked) [itraconazole]: the “log10 S [M]” value is reported as -3.59 M. For bezafibrate, the “log10 S [M]” value was -3.22 M. As to `CCOc1nc2cccc(C(=O)OC(C)OC(=O)OC3CCCCC3)c2n1Cc1ccc(-c2ccccc2-c2nnn[nH]2)cc1` (centres unmarked) [candesartan cilexetil], the “log10 S [M]” value is reported as -2.93 M.

Staying with this data set, now noted: decadic logarithm of molar solubility in MCTs; ref Wyttenbach, N., Niederquell, A., Ectors, P. and Kuentz, M., 2022; cited from earlier work.
Consider `O=c1[nH]c2ccccc2n1C1CCN(CCCC(c2ccc(F)cc2)c2ccc(F)cc2)CC1` [pimozide], for which the “log10 S [M]” value is on record as -2.82 M. Take `COc1ccccc1OCCNCC(O)COc1cccc2[nH]c3ccccc3c12` (centres unmarked) [carvedilol]: the “log10 S [M]” value was -2.46 M.
